The record followed here is patent US11129867B2, “Method of treating cancer cells” (priority 2017, dated 2021).

The test system of data set [1] is Ca922 cells. The data set can be described thus: WST-8 cell viability assay, Ca922. Type of data set: cell-based, human. The note with it: for cytotoxicity (cell viability): 48 hours. The procedure: (§1) Human oral squamous cell carcinoma (OSCC) cell lines, Ca922, OSC20, OECM-1, OC3, CGHNC9, HSC3, plus A549, MDA-MB-231, MCF7, Huh7, HeLa-Kyoto, Detroit 562, H520, H2170, and 293T cells were used in this study. Ca922, CGHNC9, MDA-MB-231, MCF7, Huh7, HeLa-Kyoto, Detroit 562, and 293T cells were all cultured in high-glucose Dulbecco's Modified Eagle Medium (DMEM). OSC20 and HSC3 cells were cultured in Dulbecco's Modified of Eagle's Medium/Ham's F-12 50/50 Mix (1:1). OECM-1, A549, H520, and H2170 cells were grown in RPMI-1640 medium. All culture media were supplemented with 10% fetal bovine serum (FBS) and 1% penicillin-streptomycin. OC3 cells were cultured in 1:1 DMEM/KSFM (keratinocyte serum-free medium) with supplied supplement of Bovine pituitary extract (BPE) and epidermal growth factor (EGF) followed by instruction. All the cells in this study were maintained at 37° C. in humidified atmosphere containing 5% CO2.
(§2) WST-8 [2-(2-methoxy-4-nitrophenyl)-3-(4-nitrophenyl)-5-(2,4-disulfophenyl)-2H-tetrazolium, monosodium salt] cell viability assay
(§3) Cells were seeded into 96 well plate and incubated at 37° C. overnight. Endpoint measures of TMR-GBP or drugs were performed by water soluble tetrazolium salt (WST-8)-based colorimetric assay in triplicate which measures the metabolic conversion of WST-8 into formazan by mitochondrial dehydrogenases present in viable cells. The amount of formazan produced is proportional to the number of live cells and is expressed as cellular viability. When time was up, media were removed and supplemented with WST-8 cell viability reagent-contained cell culture medium (1:10) and incubated at 37° C. for 2 hours. Besides, three wells with WST-8-dissolved medium only (without cells) were reserved as a background control. Cell viability was measured at the absorbance of 450/655 nm wavelength by ELISA reader.
(Formazan colour is commonly taken as a measure of viable cells.)

The test system of the next data set is Huh7. The data set can be described thus: WST-8 cell viability assay, Huh7. Type of data set: cell-based. The note with it: Huh7 (liver cancer), different concentrations, 48 hours, FIG. 3. The protocol: as §1, §2
(§4) Cells were seeded into 96 well plate and incubated at 37° C. overnight. […] The amount of formazan produced is proportional to the number of live cells and is expressed as cellular viability. […] Cell viability was measured at the absorbance of 450/655 nm wavelength by ELISA reader.

The subject of another data set is A549. As to the kind of experiment: WST-8 cell viability assay, A549. Particulars: A549 (lung cancer), different concentrations, 48 hours, FIG. 3. The data set is classed as cell-based. The protocol:
as §1, §2, §4

In the next data set the test system is H520. As to the kind of experiment: WST-8 cell viability assay, H520. Type of data set: cell-based. The note with it: H520 (lung cancer), different concentrations, 48 hours, FIG. 5. The procedure:
as §1, §2, §3

In a further data set the test system is OSC20. The data set can be described thus: Time-lapse live cell imaging, OSC20. The data set is classed as cell-based, human. The note with it: OSC20, unbound TMR-GBP removed, imaged at 15 minutes interval for 16 hours, FIG. 4. The protocol:
Time-Lapse Live Cell Imaging
In order to monitor cell morphology and the stability of TMR-GBP, cells were incubated in 35 mm dish or 4 well dish at 37° C. overnight. Replaced the culture medium with CO2-independent medium with supplement of 10% fetal bovine serum (FBS) and 1% penicillin-streptomycin, cells were treated with reagent (TMR, GBP, TMR-GBP) for the time according to the experiment and subjected to time-lapse live cell imaging. Cells were maintained on the microscope stage incubator at 37° C. Multiple-positional time-lapse imaging was performed using an automated Leica DMI6000 inverted microscope equipped with an HCX PL FL 20λ/NA0.4 objective and Andor Luca R EMCCD camera. Images of cells were taken at different interval time and analyzed by MetaMorph software.

The subject of data set [2] is Ca922 cells. As to the kind of experiment: Annexin V staining with flow cytometry. The data set is classed as cell-based, human. Particulars: Ca922, 12.5 μM TMR-GBP, FIG. 6B. The procedure:
[…] Diluted 10× Binding Buffer to 1× using distilled water. Washed cells once in PBS, then once in 1× Binding Buffer. Resuspended cells in 1× Binding Buffer at 1-5×10^6/mL. Next, added 5 μL of fluorochrome-conjugated Annexin V to 100 μL of the cell suspension. Sample was incubated 10-15 minutes at room temperature. Afterwards, washed cells in 1× Binding Buffer and resuspend in 200 μL of 1× Binding Buffer. Analyzed by flow cytometry within 4 hours, storing at 2-8° C. in the dark.

Data set [3] relates to mitochondria of Ca922 cells. As to the kind of experiment: Immunofluorescence staining of TOM20 and cytochrome-c. The data set is classed as cell-based, human. The note with it: Ca922, different dose, 8 or 24 hours, FIG. 7. The procedure: Ca922 cells were treated with different doses of TMR-GBP for 8 or 24 hours and then fixed with 4% formaldehyde. Representative images showing the staining of mitochondria marker TOM20 and cytochrome-c. Scale bar indicates 10 μm.
(§5) Immunofluorescence Staining
(§6) Cells grown on coverslips were washed with 1×PBS and fixed by PTEMF buffer (20 mM PIPES pH 6.8, 0.2% Triton X-100, 10 mM EGTA, 1 mM MgCl2, and 4% formaldehyde) or 4% paraformaldehyde for 10 minutes at room temperature. Then, fixation buffer was replaced with 1×PBST and the cells were washed with 1×PBST for another 10 minutes at room temperature. Coverslips were washed with 1×PBST twice gently and incubated with primary antibodies at room temperature for 1 hour. Next, washed with PBST for three times (2, 2, 5 minutes). Afterwards, coverslips were cultured in Alex Fluor-conjugated secondary antibodies and DAPI at room temperature for 30 minutes, washed three times (2, 2, 5 minutes), rinsed with ddH2O and mounted with mounting medium. Antibodies concentration used in this analysis is 1:1000 dilution. Images were acquired with specific fluorescence wavelength by Leica DMI6000 inverted microscope equipped with HCX PL FL 100λ/NA1.40 objective and EMCCD camera. All images were analyzed by MetaMorph software.

A further data set concerns phospho-γH2Ax. The data set can be described thus: Immunofluorescence staining of phospho-γH2Ax (DNA damage). Type of data set: cell-based, human. The protocol:
Representative images showing DAPI-labelled nucleus (shown in blue) co-stained with phospho-γH2Ax (green). Ca922 cells were treated with 25 μM TMR-GBP for 12 or 24 hours followed by immunofluorescence staining. Foci in the nucleus indicated damaged DNA. Scale bar indicates 10 μm.
At least 20 cells were counted in each category. Bars indicate standard deviations from three independent experiments.
as §5, §6

The structures appear in SMILES notation. Where a SMILES comes first, the peptide text is derived from it. The star is where a group is joined. X1 = CN(C)c1ccc2c(-c3ccc(C(=O)*)cc3C(=O)[O-])c3ccc(=[N+](C)C)cc-3oc2c1

On to `CN(C)c1ccc2c(-c3ccc(C(=O)N[C@@H](CC(N)=O)C(=O)N[C@@H](Cc4ccc(O)cc4)C(=O)N[C@@H](CCCNC(=N)N)C(=O)N[C@@H](Cc4c[nH]c5ccccc45)C(=O)N[C@@H](CCCNC(=N)N)C(=O)N[C@@H](CS)C(=O)N[C@@H](CCCCN)C(=O)N[C@@H](CC(N)=O)C(=O)N[C@@H](CCC(N)=O)C(=O)N[C@@H](CC(N)=O)C(=O)O)cc3C(=O)[O-])c3ccc(=[N+](C)C)cc-3oc2c1` [TMR-GBP] (X1-NYRWRCKNQN-OH; N-terminus and C-terminus assumed), for which the “cytotoxicity (cell viability)” value in the data set on Ca922 cells [1] (Ca922 (oral cancer), different concentrations, FIG. 5) is “could induce cytotoxicity”; in the data set on Ca922 cells [1] (Ca922 cells, 50 μM, FIG. 1) it was “could induce cytotoxicity”; in the data set with H520 it was “could induce cytotoxicity”. Moreover, in the data set with Ca922 cells [1] (Ca922, NAC pretreated 2 hours, then TMR-GBP 0, 12.5, 25 or 50 μM for 48 hours, FIG. 8B), the “TMR-GBP induced cytotoxicity after NAC pretreatment” value is “partially suppressed by NAC”. The “TMR-GBP induced cytotoxicity, dependence on calcium” value in the data set on Ca922 cells [1] (Ca922, calcium chelators BAPTA-AM, EGTA pretreated 2 hours, then TMR-GBP 48 hours, FIG. 8B) is reported as “independent of calcium release”. For the same compound, the cell viability entry with Huh7 and in the data set on A549 was “not markedly affected” each time. For the same compound, the “cell death by time-lapse microscopy” value in the data set on OSC20 was “most cells die in 8 hours”. For the same compound, the “apoptosis by Annexin-V-FITC labeling” value in the data set with Ca922 cells [2] is on record as “positively labeled by Annexin-V-FITC”. In addition, the cytochrome-c release entry in data set [3] is recorded as “Cytochrome-c release upon TMR-GBP treatment was also detected”. Moreover, the “morphology of mitochondria (TOM20)” value in data set [3] was “became fragmented when the concentration of TMR-GBP was increased or the treatment time was extended”. Also, the “phospho-γH2Ax foci in the nucleus (DNA damage)” value in the data set on phospho-γH2Ax (Ca922, 25 μM TMR-GBP, 12 or 24 hours, FIG. 10A) is “many foci were observed accumulating in the nucleus”. In the data set with phospho-γH2Ax (Ca922, 25 μM, over control cells or cells co-treated with TMR-GBP and NAC, FIG. 10B), the “increase of nuclear γH2Ax intensity” value stood at 4 folds. Besides, in the data set on phospho-γH2Ax (Ca922, co-treated with TMR-GBP and NAC, FIG. 10A), the “phospho-γH2Ax signal, co-treated with NAC” value was “hardly detected any phospho-γH2Ax signal”.
